{"source": "ChEMBL document CHEMBL1140787", "about": "“Discovery of beta-benzamido hydroxamic acids as potent, selective, and orally bioavailable TACE inhibitors” (Bioorg Med Chem Lett, 2008)", "key": {"[1]": {"target": "Disintegrin and metalloproteinase domain-containing protein 17 (Sus scrofa, UniProt O77636)", "sequence (O77636 whole entry, the tested form may be a part)": "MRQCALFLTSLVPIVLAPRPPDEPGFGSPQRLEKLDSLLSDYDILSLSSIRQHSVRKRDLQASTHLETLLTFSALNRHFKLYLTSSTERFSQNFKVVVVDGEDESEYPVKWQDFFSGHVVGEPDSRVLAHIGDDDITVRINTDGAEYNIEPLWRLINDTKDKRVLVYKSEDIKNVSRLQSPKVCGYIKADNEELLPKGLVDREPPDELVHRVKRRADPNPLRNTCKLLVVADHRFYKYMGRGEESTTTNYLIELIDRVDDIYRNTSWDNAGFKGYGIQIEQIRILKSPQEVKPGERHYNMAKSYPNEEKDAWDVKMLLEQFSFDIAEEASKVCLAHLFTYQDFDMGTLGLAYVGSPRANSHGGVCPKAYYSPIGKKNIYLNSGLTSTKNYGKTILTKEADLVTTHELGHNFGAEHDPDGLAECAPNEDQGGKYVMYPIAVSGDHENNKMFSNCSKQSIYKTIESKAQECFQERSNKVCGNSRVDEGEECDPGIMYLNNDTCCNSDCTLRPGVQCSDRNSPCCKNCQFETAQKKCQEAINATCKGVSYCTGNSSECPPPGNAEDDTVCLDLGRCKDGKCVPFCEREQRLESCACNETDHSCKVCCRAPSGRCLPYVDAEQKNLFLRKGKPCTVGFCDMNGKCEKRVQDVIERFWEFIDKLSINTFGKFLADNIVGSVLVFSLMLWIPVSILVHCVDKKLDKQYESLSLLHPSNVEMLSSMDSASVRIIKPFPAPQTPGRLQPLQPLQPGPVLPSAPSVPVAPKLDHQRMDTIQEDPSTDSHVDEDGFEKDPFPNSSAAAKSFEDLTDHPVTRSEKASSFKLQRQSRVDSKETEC", "assay": "Inhibition of pig TACE"}, "Blood": {"tested_on": "Blood", "assay": "Inhibition of LPS-stimulated TNFalpha release in human whole blood", "format": "functional, tissue-based"}, "[2]": {"assay": "Permeability across human Caco-2 cell membrane", "format": "ADME, cell-based"}, "Stromelysin-1": {"target": "Stromelysin-1 (Homo sapiens, UniProt P08254)", "sequence (P08254 whole entry)": "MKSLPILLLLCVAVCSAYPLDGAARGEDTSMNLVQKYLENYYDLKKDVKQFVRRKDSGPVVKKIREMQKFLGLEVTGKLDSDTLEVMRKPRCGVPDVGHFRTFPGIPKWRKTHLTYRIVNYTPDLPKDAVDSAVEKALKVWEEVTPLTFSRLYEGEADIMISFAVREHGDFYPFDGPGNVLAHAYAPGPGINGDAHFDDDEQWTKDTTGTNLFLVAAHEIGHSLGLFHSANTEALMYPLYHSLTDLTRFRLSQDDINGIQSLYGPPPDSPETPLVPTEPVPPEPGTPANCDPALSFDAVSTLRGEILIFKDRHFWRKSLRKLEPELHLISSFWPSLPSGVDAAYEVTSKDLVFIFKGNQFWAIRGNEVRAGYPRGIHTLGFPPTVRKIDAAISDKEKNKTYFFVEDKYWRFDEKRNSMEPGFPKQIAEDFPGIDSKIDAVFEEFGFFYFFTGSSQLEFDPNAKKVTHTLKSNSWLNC", "assay": "Inhibition of MMP3"}, "Matrilysin": {"target": "T1, Matrilysin (Homo sapiens, UniProt P09237)", "T1 sequence (P09237 whole entry)": "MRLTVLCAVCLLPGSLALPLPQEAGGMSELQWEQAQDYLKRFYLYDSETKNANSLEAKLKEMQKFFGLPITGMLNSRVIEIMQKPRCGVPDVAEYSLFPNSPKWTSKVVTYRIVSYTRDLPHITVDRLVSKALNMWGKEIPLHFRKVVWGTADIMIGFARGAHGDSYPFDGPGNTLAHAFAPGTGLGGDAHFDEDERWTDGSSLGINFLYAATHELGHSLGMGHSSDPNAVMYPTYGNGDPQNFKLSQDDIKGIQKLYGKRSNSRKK", "assay": "Inhibition of MMP7"}, "Stromelysin-2": {"target": "Stromelysin-2 (Homo sapiens, UniProt P09238)", "sequence (P09238 whole entry)": "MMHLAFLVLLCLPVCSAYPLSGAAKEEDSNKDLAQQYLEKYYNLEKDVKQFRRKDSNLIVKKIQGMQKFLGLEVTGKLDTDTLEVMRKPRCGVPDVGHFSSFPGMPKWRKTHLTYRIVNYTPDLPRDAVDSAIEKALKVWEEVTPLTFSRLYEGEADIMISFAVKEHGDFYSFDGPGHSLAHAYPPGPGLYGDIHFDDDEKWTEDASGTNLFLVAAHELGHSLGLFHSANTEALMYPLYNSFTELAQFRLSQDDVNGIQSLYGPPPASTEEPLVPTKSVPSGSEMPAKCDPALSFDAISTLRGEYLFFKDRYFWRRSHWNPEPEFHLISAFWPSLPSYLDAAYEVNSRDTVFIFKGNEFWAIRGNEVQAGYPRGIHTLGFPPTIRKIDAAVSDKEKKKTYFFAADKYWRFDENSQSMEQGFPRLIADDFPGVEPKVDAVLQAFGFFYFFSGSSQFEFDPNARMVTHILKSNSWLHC", "assay": "Inhibition of MMP10"}, "[3]": {"target": "Macrophage metalloelastase (Homo sapiens, UniProt P39900)", "sequence (P39900 whole entry)": "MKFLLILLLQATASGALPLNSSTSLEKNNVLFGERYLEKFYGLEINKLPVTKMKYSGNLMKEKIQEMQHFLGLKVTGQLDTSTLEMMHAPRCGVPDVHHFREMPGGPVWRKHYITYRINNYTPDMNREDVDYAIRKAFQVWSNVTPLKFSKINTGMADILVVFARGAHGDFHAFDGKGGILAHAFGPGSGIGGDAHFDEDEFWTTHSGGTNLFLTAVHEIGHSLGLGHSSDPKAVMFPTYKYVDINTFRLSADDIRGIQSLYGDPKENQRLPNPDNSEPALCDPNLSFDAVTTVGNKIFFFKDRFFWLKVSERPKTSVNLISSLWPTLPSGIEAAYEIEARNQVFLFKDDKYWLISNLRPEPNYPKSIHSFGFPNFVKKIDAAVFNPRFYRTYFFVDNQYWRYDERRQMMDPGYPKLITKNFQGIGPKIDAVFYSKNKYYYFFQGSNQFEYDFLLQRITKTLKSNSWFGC", "assay": "Inhibition of MMP12"}, "[4]": {"assay": "Fraction unbound in rat serum", "format": "ADME, cell-free"}, "[5]": {"assay": "Fraction unbound in dog serum", "format": "ADME, cell-free, Canis lupus familiaris"}, "[6]": {"assay": "Fraction unbound in human serum", "format": "ADME, cell-free"}, "Cytochrome P450 3A4": {"target": "Cytochrome P450 3A4 (Homo sapiens, UniProt P08684)", "sequence (P08684 whole entry)": "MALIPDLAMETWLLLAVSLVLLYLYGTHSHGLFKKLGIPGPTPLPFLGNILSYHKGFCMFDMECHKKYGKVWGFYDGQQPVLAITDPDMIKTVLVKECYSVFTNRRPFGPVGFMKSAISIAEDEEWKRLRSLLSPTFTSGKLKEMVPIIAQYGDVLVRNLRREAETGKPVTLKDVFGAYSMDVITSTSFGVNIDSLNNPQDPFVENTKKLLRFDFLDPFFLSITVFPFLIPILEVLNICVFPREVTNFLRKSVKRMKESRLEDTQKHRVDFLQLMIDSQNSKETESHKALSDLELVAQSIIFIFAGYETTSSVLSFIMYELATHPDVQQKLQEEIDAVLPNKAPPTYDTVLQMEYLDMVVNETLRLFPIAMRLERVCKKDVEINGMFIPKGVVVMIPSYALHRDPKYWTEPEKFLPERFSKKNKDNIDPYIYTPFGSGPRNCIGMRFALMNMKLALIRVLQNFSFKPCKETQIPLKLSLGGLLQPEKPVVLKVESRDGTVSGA", "assay": "Inhibition of CYP3A4 at 20 uM", "format": "ADME"}, "Mus musculus": {"tested_on": "Mus musculus", "assay": "Inhibition of LPS-induced TNFalpha production in po dosed mouse endotoxemia model", "format": "functional"}, "Rattus norvegicus": {"tested_on": "Rattus norvegicus", "assay": "Inhibition of LPS-induced TNFalpha production in po dosed rat endotoxemia model", "format": "functional"}, "[7]": {"assay": "Half life in Sprague-Dawley rat at 2 mg/kg, iv", "format": "ADME, organism-based", "set-up": "dose 2 mg/kg, route intravenous", "details": "in vivo; call rule not given here"}, "[8]": {"assay": "Clearance in Sprague-Dawley rat at 2 mg/kg, iv", "format": "ADME, organism-based", "set-up": "dose 2 mg/kg, route intravenous", "details": "in vivo"}, "[9]": {"assay": "Volume of distribution at steady state in Sprague-Dawley rat at 2 mg/kg, iv", "format": "ADME, organism-based", "set-up": "dose 2 mg/kg, route intravenous", "details": "in vivo, read-out: Vdss"}, "[10]": {"assay": "AUC in Sprague-Dawley rat at 2 mg/kg, iv", "format": "ADME, organism-based", "set-up": "dose 2 mg/kg, route intravenous", "details": "plasma"}, "[11]": {"assay": "AUC in Sprague-Dawley rat at 40 mg/kg, po", "format": "ADME, organism-based", "set-up": "dose 40 mg/kg, route oral", "details": "plasma"}, "[12]": {"assay": "Oral bioavailability in Sprague-Dawley rat at 40 mg/kg", "format": "ADME, organism-based", "details": "in vivo"}, "[13]": {"assay": "Tmax in Sprague-Dawley rat at 40 mg/kg, po", "format": "ADME, organism-based", "set-up": "dose 40 mg/kg, route oral", "details": "in vivo"}, "[14]": {"assay": "Half life in Beagle dog at 2 mg/kg, iv", "format": "ADME, organism-based, Canis lupus familiaris", "set-up": "dose 2 mg/kg, route intravenous", "details": "in vivo"}, "[15]": {"assay": "Clearance in Beagle dog at 2 mg/kg, iv", "format": "ADME, organism-based, Canis lupus familiaris", "set-up": "dose 2 mg/kg, route intravenous", "details": "in vivo"}, "[16]": {"assay": "Volume of distribution at steady state in Beagle dog at 2 mg/kg, iv", "format": "ADME, organism-based, Canis lupus familiaris", "set-up": "dose 2 mg/kg, route intravenous", "details": "in vivo, read-out: Vdss"}, "[17]": {"assay": "AUC in Beagle dog at 2 mg/kg, iv", "format": "ADME, organism-based, Canis lupus familiaris", "set-up": "dose 2 mg/kg, route intravenous", "details": "plasma"}, "[18]": {"assay": "AUC in Beagle dog at 8 mg/kg, po", "format": "ADME, organism-based, Canis lupus familiaris", "set-up": "dose 8 mg/kg, route oral", "details": "plasma"}, "[19]": {"assay": "Oral bioavailability in Beagle dog at 8 mg/kg", "format": "ADME, organism-based, Canis lupus familiaris", "details": "in vivo"}, "[20]": {"assay": "Tmax in Beagle dog at 8 mg/kg, po", "format": "ADME, organism-based, Canis lupus familiaris", "set-up": "dose 8 mg/kg, route oral", "details": "in vivo"}}, "note": "pIC50, pKi: −log10 of the molar value.", "data": [{"compound": "Cc1cc(COc2ccc(C(=O)N[C@@H]3CCCO[C@@H]3C(=O)NO)cc2)c2ccccc2n1", "values": [{"measurement": "pIC50", "setting": "[1]", "value": 8.52}, {"measurement": "pIC50", "setting": "Blood", "value": 5.39}, {"measurement": "Papp", "setting": "[2]", "value": 0.06, "unit": "×10⁻⁶ cm/s"}]}, {"compound": "Cc1cc(COc2ccc(C(=O)N[C@@H]3CN(C(C)(C)C)CC[C@@H]3C(=O)NO)cc2)c2ccccc2n1", "values": [{"measurement": "pIC50", "setting": "[1]", "value": 8.70}, {"measurement": "pIC50", "setting": "Blood", "value": 7.36}, {"measurement": "Papp", "setting": "[2]", "value": 0.6, "unit": "×10⁻⁶ cm/s"}]}, {"compound": "Cc1cc(COc2ccc(C(=O)N[C@H]3CNCC[C@@H]3C(=O)NO)cc2)c2ccccc2n1", "values": [{"measurement": "pIC50", "setting": "[1]", "value": "> 9.00"}, {"measurement": "pIC50", "setting": "Blood", "value": 6.41}]}, {"compound": "Cc1cc(COc2ccc(C(=O)N[C@@H]3CCCC[C@H]3C(=O)NO)cc2)c2ccccc2n1", "values": [{"measurement": "pIC50", "setting": "[1]", "value": 8.70}, {"measurement": "pIC50", "setting": "Blood", "value": "< 5.52"}]}, {"compound": "Cc1cc(COc2ccc(C(=O)N[C@@H]3CCCC[C@@H]3C(=O)NO)cc2)c2ccccc2n1", "values": [{"measurement": "pIC50", "setting": "[1]", "value": 8.70}, {"measurement": "pIC50", "setting": "Blood", "value": 6.05}, {"measurement": "Papp", "setting": "[2]", "value": 3.4, "unit": "×10⁻⁶ cm/s"}]}, {"compound": "Cc1cc(COc2ccc(C(=O)N[C@@H]3CCNC[C@@H]3C(=O)NO)cc2)c2ccccc2n1", "values": [{"measurement": "pIC50", "setting": "[1]", "value": 7.62}, {"measurement": "pIC50", "setting": "Blood", "value": 6.21}, {"measurement": "Papp", "setting": "[2]", "value": 0.2, "unit": "×10⁻⁶ cm/s"}]}, {"compound": "Cc1cc(COc2ccc(NC(=O)[C@@H]3[C@@H](C(=O)NO)CCCN3C)cc2)c2ccccc2n1", "values": [{"measurement": "pIC50", "setting": "Blood", "value": 7.70}]}, {"compound": "Cc1cc(COc2ccc(C(=O)N[C@@H]3CNCC[C@@H]3C(=O)NO)cc2)c2ccccc2n1", "values": [{"measurement": "pIC50", "setting": "[1]", "value": 9.00}, {"measurement": "pIC50", "setting": "Blood", "value": 6.73}, {"measurement": "Papp", "setting": "[2]", "value": 0.2, "unit": "×10⁻⁶ cm/s"}]}, {"compound": "Cc1cc(COc2ccc(C(=O)N[C@@H]3CN(CCN(C)C)CC[C@@H]3C(=O)NO)cc2)c2ccccc2n1", "values": [{"measurement": "pIC50", "setting": "[1]", "value": 8.70}, {"measurement": "pIC50", "setting": "Blood", "value": 7.26}, {"measurement": "Papp", "setting": "[2]", "value": 0.1, "unit": "×10⁻⁶ cm/s"}]}, {"compound": "Cc1cc(COc2ccc(C(=O)N[C@@H]3CCOC[C@@H]3C(=O)NO)cc2)c2ccccc2n1", "values": [{"measurement": "pIC50", "setting": "[1]", "value": "> 9.00"}, {"measurement": "pKi", "setting": "[1]", "value": 9.82}, {"measurement": "pIC50", "setting": "Blood", "value": 6.89}, {"measurement": "Papp", "setting": "[2]", "value": 2.3, "unit": "×10⁻⁶ cm/s"}, {"measurement": "pKi", "setting": "Stromelysin-1", "value": "> 7.00"}, {"measurement": "pKi", "setting": "Matrilysin", "value": "> 7.00"}, {"measurement": "pKi", "setting": "Stromelysin-2", "value": "> 7.00"}, {"measurement": "pKi", "setting": "[3]", "value": "> 7.00"}, {"measurement": "fraction unbound", "setting": "[4]", "value": 0.038}, {"measurement": "fraction unbound", "setting": "[5]", "value": 0.17}, {"measurement": "fraction unbound", "setting": "[6]", "value": 0.075}, {"measurement": "Activity", "setting": "Cytochrome P450 3A4", "value": "Not Active"}, {"measurement": "ED50", "setting": "Mus musculus", "value": 2.2, "unit": "mg/kg"}, {"measurement": "ED50", "setting": "Rattus norvegicus", "value": 3, "unit": "mg/kg"}, {"measurement": "half-life", "setting": "[7]", "value": 84, "unit": "min"}, {"measurement": "clearance", "setting": "[8]", "value": 11.7, "unit": "mL/min/kg"}, {"measurement": "Vd", "setting": "[9]", "value": 0.4, "unit": "L/kg"}, {"measurement": "AUC", "setting": "[10]", "value": 5.7, "unit": "µM·h"}, {"measurement": "AUC", "setting": "[11]", "value": 65, "unit": "µM·h"}, {"measurement": "bioavailability", "setting": "[12]", "value": 58, "unit": "%"}, {"measurement": "Tmax", "setting": "[13]", "value": 24, "unit": "min"}, {"measurement": "half-life", "setting": "[14]", "value": 96, "unit": "min"}, {"measurement": "clearance", "setting": "[15]", "value": 28.3, "unit": "mL/min/kg"}, {"measurement": "Vd", "setting": "[16]", "value": 1.6, "unit": "L/kg"}, {"measurement": "AUC", "setting": "[17]", "value": 2.7, "unit": "µM·h"}, {"measurement": "AUC", "setting": "[18]", "value": 11, "unit": "µM·h"}, {"measurement": "bioavailability", "setting": "[19]", "value": 96, "unit": "%"}, {"measurement": "Tmax", "setting": "[20]", "value": 12, "unit": "min"}]}, {"compound": "Cc1cc(COc2ccc(C(=O)NC3CCC3C(=O)NO)cc2)c2ccccc2n1", "note": "(configuration not stated)", "values": [{"measurement": "pIC50", "setting": "[1]", "value": 9.00}, {"measurement": "pIC50", "setting": "Blood", "value": 5.54}, {"measurement": "Papp", "setting": "[2]", "value": 0.4, "unit": "×10⁻⁶ cm/s"}]}, {"compound": "Cc1cc(COc2ccc(C(=O)N[C@@H]3COCC[C@@H]3C(=O)NO)cc2)c2ccccc2n1", "values": [{"measurement": "pIC50", "setting": "[1]", "value": "> 9.00"}, {"measurement": "pIC50", "setting": "Blood", "value": 6.54}, {"measurement": "Papp", "setting": "[2]", "value": 0.4, "unit": "×10⁻⁶ cm/s"}]}]}
